Test results from patent US8791143B2, “Anthranilic diamide derivatives having cyclic side-chains” (priority 2010, dated 2014).
Read-outs that look alike come from different tables or passages of the source. Blank lines part the entries; values can stand above or below the compound they belong to.

What was measured:
[1] = log P by HPLC on reversed-phase columns (EEC Directive 79/831 Annex V.A8); type: physicochemical
[2] = test system: caterpillars of the armyworm (Spodoptera frugiperda); assay: Spodoptera frugiperda test (SPODFR spray treatment); type: in vivo; conditions: Spodoptera frugiperda, 168 h, read-out: activity in % (caterpillars killed)
[3] = test system: larvae of the mustard beetle (Phaedon cochleariae); assay: Phaedon test (PHAECO spray treatment); conditions: Phaedon cochleariae, 168 h, read-out: activity in % (beetle larvae killed)
[4] = reversed-phase C18 HPLC column, pH 2.7, HPLC reversed-phase C18, acidic range pH 2.7 (HCOOH), only or first value of the cell, read-out: log P
[5] = application rate 100 g/ha, after 7 days

Compound: Cc1ccc(Cl)c(C(=O)NCc2ccc(Cl)cc2)c1NC(=O)c1cc(Cn2nnc(C(F)(F)F)n2)nn1-c1ncccc1Cl [Example 198]
chromatographic logP ([1]; pH 2.7, log P): 3.68

Compound: Cc1cc(Cl)cc(C(=O)N[C@H](C)c2ccccc2)c1NC(=O)c1cc(Cn2nnc(C(F)(F)F)n2)nn1-c1ncccc1Cl [Example 85]
chromatographic logP ([1]; pH 2.7, log P): 3.92 | pest or weed control at 100 g/ha [2]: 100% | pest or weed control at 100 g/ha [3]: 100%

Compound: Cc1cc(Cl)cc(C(=O)NC2COC2)c1NC(=O)c1cc(Cn2nc(C(F)(F)F)nc2C(F)(F)F)nn1-c1ncccc1Cl [Example 8]
chromatographic logP ([1]; pH 2.7, log P): 3.24 | pest or weed control at 100 g/ha [2]: 100% | pest or weed control at 100 g/ha [3]: 100%

Compound: Cc1ccc(Cl)c(C(=O)NCc2ccccc2Cl)c1NC(=O)c1cc(Cn2nnc(C(F)(F)F)n2)nn1-c1ncccc1Cl [Example 196]
chromatographic logP ([1]; pH 2.7, log P): 3.64 | pest or weed control at 100 g/ha [2]: 100% | pest or weed control at 100 g/ha [3]: 100%

Compound: Cc1cccc(CNC(=O)c2cc(Cl)cc(C)c2NC(=O)c2cc(Cn3nnc(C(F)(F)F)n3)nn2-c2ncccc2Cl)n1 [Example 225]
chromatographic logP ([1]; pH 2.7, log P): 2.24 | pest or weed control at 100 g/ha [2]: 100% | pest or weed control at 100 g/ha [3]: 100%

Compound: Cc1cc(C#N)cc(C(=O)NC2CCN(C)CC2)c1NC(=O)c1cc(Cn2nnc(C(F)(F)F)n2)nn1-c1ccccc1Cl [Example 59]
chromatographic logP [1, 4]: 1.79

Compound: Cc1cc(Cl)cc(C(=O)NCc2cc3ccccc3nc2Cl)c1NC(=O)c1cc(Cn2nnc(C(F)(F)F)n2)nn1-c1ncccc1Cl [Example 237]
chromatographic logP [1, 4]: 3.94

Compound: Cc1cc(Cl)cc(C(=O)NCC2CCCO2)c1NC(=O)c1cc(Cn2nnc(C(F)(F)F)n2)nn1-c1ncccc1Cl (stereo not shown) [Example 60]
chromatographic logP ([1]; pH 2.7, log P): 3.25 | pest or weed control at 100 g/ha [2]: 100%

Compound: Cc1ccc(CNC(=O)c2cc(Cl)cc(C)c2NC(=O)c2cc(Cn3nnc(C(F)(F)F)n3)nn2-c2ncccc2Cl)cc1 [Example 90]
chromatographic logP ([1]; pH 2.7, log P): 4.08 | pest or weed control at 100 g/ha [2]: 100%

Compound: Cc1cc(Cl)cc(C(=O)NCc2ccccc2)c1NC(=O)c1cc(Cn2nnc(CCC(F)(F)F)n2)nn1-c1ncccc1Cl [Example 79]
chromatographic logP ([1]; pH 2.7, log P): 3.56

Compound: Cc1cc(Cl)cc(C(=O)NC2CCN(C)CC2)c1NC(=O)c1cc(Cn2nnc(C(F)(F)F)n2)nn1-c1ncccc1Cl [Example 55]
chromatographic logP ([1]; pH 2.7, log P): 4.14 | pest or weed control at 100 g/ha [2]: 100%

Compound: Cc1ccc(CNC(=O)c2cc(Cl)cc(C)c2NC(=O)c2cc(Cn3nnc(C(F)(F)F)n3)nn2-c2ncccc2Cl)nc1C [Example 227]
chromatographic logP ([1]; pH 2.7, log P): 2.1 | pest or weed control at 100 g/ha [2]: 100%

Compound: Cc1cc(I)cc(C(=O)NCc2ccccc2)c1NC(=O)c1cc(Cn2nnc(CCC(F)(F)F)n2)nn1-c1ncccc1Cl [Example 80]
chromatographic logP ([1]; pH 2.7, log P): 3.78

Compound: O=C(NCc1cccc(Cl)c1)c1cc2ccccc2c(Cl)c1NC(=O)c1cc(Cn2nnc(C(F)(F)F)n2)nn1-c1ncccc1Cl [Example 219]
chromatographic logP [1, 4]: 4.13

Compound: Cc1cc(Cl)cc(C(=O)NC2COC2)c1NC(=O)c1cc(Cn2nnc(C(F)F)n2)nn1-c1ncccc1Cl [Example 16]
chromatographic logP ([1]; pH 2.7, log P): 2.37 | pest or weed control at 100 g/ha [2]: 100%

Compound: Cc1cc(C#N)cc(C(=O)NC2COC2)c1NC(=O)c1cc(Cn2nnc(C(F)F)n2)nn1-c1ncccc1Cl [Example 17]
chromatographic logP ([1]; pH 2.7, log P): 2.05 | pest or weed control at 100 g/ha [2]: 83%

Compound: Cc1cc(C#N)cc(C(=O)NC2CS(=O)(=O)CC2O)c1NC(=O)c1cc(Cn2nnc(C(F)(F)F)n2)nn1-c1ccccc1Cl (stereo not shown) [Example 53]
chromatographic logP [1, 4]: 2.64

Compound: O=C(NCc1ccccc1Cl)c1cc2ccccc2c(Cl)c1NC(=O)c1cc(Cn2nnc(C(F)(F)F)n2)nn1-c1ncccc1Cl [Example 218]
chromatographic logP [1, 4]: 4.1

Compound: Cc1cc(Cl)cc(C(=O)NCc2ccccc2)c1NC(=O)c1cc(Cn2nnnc2CCC(F)(F)F)nn1-c1ncccc1Cl [Example 131]
chromatographic logP ([1]; pH 2.7, log P): 3.2

Compound: Cc1cc(Cl)cc(C(=O)NC(C)c2cc(Cl)cc(Cl)c2)c1NC(=O)c1cc(Cn2nnc(C(F)(F)F)n2)nn1-c1ncccc1Cl (stereo not shown) [Example 145]
chromatographic logP [1, 4]: 4.66

Compound: Cc1cc(I)cc(C(=O)NCc2ccccc2)c1NC(=O)c1cc(Cn2nnnc2CCC(F)(F)F)nn1-c1ncccc1Cl [Example 133]
chromatographic logP ([1]; pH 2.7, log P): 3.45

Compound: O=C(NCc1ccccc1OC(F)(F)F)c1cc2ccccc2c(Cl)c1NC(=O)c1cc(Cn2nnc(C(F)(F)F)n2)nn1-c1ncccc1Cl [Example 221]
chromatographic logP [1, 4]: 4.36 | pest or weed control at 100 g/ha [2, 5]: 100%

Compound: O=C(NC1COC1)c1cc(Cl)cc(Cl)c1NC(=O)c1cc(Cn2nnc(C(F)F)n2)nn1-c1ncccc1Cl [Example 19]
chromatographic logP ([1]; pH 2.7, log P): 2.37 | pest or weed control at 100 g/ha [2]: 100%

The next lines start with results.

chromatographic logP [1, 4]: 4.22
Compound: O=C(NCc1cccc(OC(F)(F)F)c1)c1cc(Cl)cc(F)c1NC(=O)c1cc(Cn2nnc(C(F)(F)F)n2)nn1-c1ncccc1Cl [Example 210]
pest or weed control at 100 g/ha [2, 5]: 100% | pest or weed control at 100 g/ha [3]: 100%

chromatographic logP [1, 4]: 4.36
Compound: Cc1cc(I)cc(C(=O)NCc2cccc(OC(F)(F)F)c2)c1NC(=O)c1cc(Cn2nnc(C(F)(F)C(F)(F)F)n2)nn1-c1ncccc1Cl [Example 147]
pest or weed control at 100 g/ha [3]: 100%

chromatographic logP [1, 4]: 3.99
Compound: Cc1cc(C#N)cc(C(=O)NCc2ccc(Cl)c(Cl)c2)c1NC(=O)c1cc(Cn2nnc(C(F)(F)F)n2)nn1-c1ccccc1Cl [Example 137]
pest or weed control at 100 g/ha [2, 5]: 100% | pest or weed control at 100 g/ha [3]: 100%

chromatographic logP [1, 4]: 4.32
Compound: O=C(NCc1cccc(OC(F)(F)F)c1)c1cc(Br)cc(Cl)c1NC(=O)c1cc(Cn2nnc(C(F)(F)F)n2)nn1-c1ncccc1Cl [Example 194]
pest or weed control at 100 g/ha [2, 5]: 100% | pest or weed control at 100 g/ha [3]: 100%

chromatographic logP [1, 4]: 3.04
Compound: Cc1cc(C#N)cc(C(=O)NCc2ccc(OC(F)F)cc2)c1NC(=O)c1cc(Cn2nnc(C(F)F)n2)nn1-c1ncccc1Cl [Example 165]
pest or weed control at 100 g/ha [2, 5]: 100% | pest or weed control at 100 g/ha [3]: 100%

chromatographic logP [1, 4]: 3.67
Compound: Cc1cc(C#N)cc(C(=O)NCc2cccc(OC(F)F)c2)c1NC(=O)c1cc(Cn2nnc(C(F)(F)F)n2)nn1-c1ccccc1Cl [Example 212]
pest or weed control at 100 g/ha [2, 5]: 100% | pest or weed control at 100 g/ha [3]: 100%

chromatographic logP [1, 4]: 3.42
Compound: Cc1cc(C#N)cc(C(=O)NCc2ccc(OC(F)(F)F)cc2)c1NC(=O)c1cc(Cn2nnc(C(F)F)n2)nn1-c1ncccc1Cl [Example 164]
pest or weed control at 100 g/ha [2, 5]: 100% | pest or weed control at 100 g/ha [3]: 100%

chromatographic logP [1, 4]: 4.46
Compound: Cc1cc(Cl)cc(C(=O)NCc2ccc(OC(F)(F)F)cc2)c1NC(=O)c1cc(Cn2nnc(C(F)(F)F)n2)nn1-c1ncccc1Cl [Example 126]
pest or weed control at 100 g/ha [2, 5]: 100% | pest or weed control at 100 g/ha [3]: 100%

chromatographic logP [1, 4]: 4.01
Compound: Cc1cc(C#N)cc(C(=O)NCc2ccc(S(F)(F)(F)(F)F)cc2)c1NC(=O)c1cc(Cn2nnc(C(F)(F)F)n2)nn1-c1ncccc1Cl [Example 64]
pest or weed control at 100 g/ha [2, 5]: 100% | pest or weed control at 100 g/ha [3]: 100%

chromatographic logP [1, 4]: 4.46
Compound: Cc1cc(C#N)cc(C(=O)NCc2ccc(OC(F)(F)F)cc2)c1NC(=O)c1cc(Cn2nnc(C(F)(F)F)n2)nn1-c1c(Cl)cccc1Cl [Example 181]
pest or weed control at 100 g/ha [2, 5]: 100%

chromatographic logP [1, 4]: 3.55
Compound: Cc1cc(C#N)cc(C(=O)NCc2ccccc2OC(F)F)c1NC(=O)c1cc(Cn2nnc(C(F)(F)F)n2)nn1-c1ncccc1Cl [Example 179]

chromatographic logP [1, 4]: 4.11
Compound: O=C(NCc1ccc(Cl)cc1)c1cc2ccccc2c(Cl)c1NC(=O)c1cc(Cn2nnc(C(F)(F)F)n2)nn1-c1ncccc1Cl [Example 220]

chromatographic logP [1, 4]: 3.92
Compound: Cc1ccc(Cl)c(C(=O)NCc2ccccc2OC(F)(F)F)c1NC(=O)c1cc(Cn2nnc(C(F)(F)F)n2)nn1-c1ncccc1Cl [Example 199]

chromatographic logP [1, 4]: 3.37
Compound: Cc1cc(C#N)cc(C(=O)NCc2ccccc2OC(F)(F)F)c1NC(=O)c1cc(Cn2nnc(C(F)F)n2)nn1-c1ncccc1Cl [Example 162]
pest or weed control at 100 g/ha [3]: 100%

chromatographic logP [1, 4]: 3.07
Compound: Cc1cc(C#N)cc(C(=O)NCc2ccccc2OC(F)F)c1NC(=O)c1cc(Cn2nnc(C(F)F)n2)nn1-c1ncccc1Cl [Example 177]

chromatographic logP [1, 4]: 4.38
Compound: O=C(NCc1cccc(OC(F)(F)F)c1)c1cc2ccccc2c(Cl)c1NC(=O)c1cc(Cn2nnc(C(F)(F)F)n2)nn1-c1ncccc1Cl [Example 222]
pest or weed control at 100 g/ha [2, 5]: 100%

chromatographic logP [1, 4]: 3.94
Compound: Cc1ccc(Cl)c(C(=O)NCc2cccc(OC(F)(F)F)c2)c1NC(=O)c1cc(Cn2nnc(C(F)(F)F)n2)nn1-c1ncccc1Cl [Example 200]

chromatographic logP [1, 4]: 3.93
Compound: Cc1ccc(Cl)c(C(=O)NCc2ccc(OC(F)(F)F)cc2)c1NC(=O)c1cc(Cn2nnc(C(F)(F)F)n2)nn1-c1ncccc1Cl [Example 201]

chromatographic logP [1, 4]: 4.75
Compound: Cc1cc(I)cc(C(=O)NCc2ccccc2)c1NC(=O)c1cc(Cn2nc(C(F)(F)F)c(C(F)(F)F)n2)nn1-c1ncccc1Cl [Example 135]

chromatographic logP [1, 4]: 4.36
Compound: O=C(NCc1ccc(OC(F)(F)F)cc1)c1cc2ccccc2c(Cl)c1NC(=O)c1cc(Cn2nnc(C(F)(F)F)n2)nn1-c1ncccc1Cl [Example 223]
pest or weed control at 100 g/ha [2, 5]: 100%

chromatographic logP [1, 4]: 2.84
Compound: Cc1cc(C#N)cc(C(=O)NCc2ccccc2)c1NC(=O)c1cc(Cn2nnnc2CCC(F)(F)F)nn1-c1ncccc1Cl [Example 132]

chromatographic logP [1, 4]: 3.42
Compound: Cc1cc(Cl)cc(C(=O)NCc2cccc(OC(F)F)c2)c1NC(=O)c1cc(Cn2nnc(C(F)F)n2)nn1-c1ncccc1Cl [Example 176]

chromatographic logP [1, 4]: 2.94
Compound: CCCc1cccc(CNC(=O)c2cc(Cl)cc(C)c2NC(=O)c2cc(Cn3nnc(C(F)(F)F)n3)nn2-c2ncccc2Cl)n1 [Example 229]
pest or weed control at 100 g/ha [3]: 100%

chromatographic logP [1, 4]: 3.21
Compound: Cc1cc(C#N)cc(C(=O)NCc2ccccc2)c1NC(=O)c1cc(Cn2nnc(CCC(F)(F)F)n2)nn1-c1ncccc1Cl [Example 130]
pest or weed control at 100 g/ha [3]: 100%

chromatographic logP [1, 4]: 3.74
Compound: Cc1ccc(CNC(=O)c2cc(C#N)cc(C)c2NC(=O)c2cc(Cn3nnc(C(F)(F)F)n3)nn2-c2ccccc2Cl)cc1 [Example 78]
pest or weed control at 100 g/ha [2, 5]: 100%
